Consider one compound from patent US20040235900A1, “Antimicrobial oxazolifinones with improved pharmacokinetic profile and safety advantages” (priority 2002, published 2004).

For this experiment, the system named is MRSA 32. Put plainly: Murine assay procedure (systemic MRSA 32 infection, oral treatment). Type of experiment: in vivo, swiss mice. Particulars: Staphylococcus aureus; oral administration, doses 1 hr and 4 hrs after infection; MRSA 32 infected mice; percentage survival on Day 7. The procedure:
Oxazolidinone new chemical entities (NCEs) were evaluated for their in vivo efficacy in a murine infection caused by multi-drug resistant, methicillin resistant Staphylococcus aureus strain, referred to as MRSA 32, a clinical isolate obtained from a hospitalised patient. The procedure used for the murine assay is as follows:
Four weeks old swiss mice of 18-22 gm body weight were infected with MRSA 32 strain suspended in 5% Hog gastric Mucin. The infecting dose of bacteria was set at 1-2×10^8 CFU/animal. The infecting dose was administered in 0.5 ml volume injected into peritonial cavity of mice. The treatment with oxazolidinone NCEs was started one hour after infection by administering 100-200 μl of the suspensions of oxazolidinone compounds in 5% Tween 80 by oral gavage. A repeat dose was similarly administered 3 hrs later. Each oxazolidinone NCE was tested at 2-3 different dosages in the range of 2.5 mg/kg to 20 mg/kg. In each dose group 6 mice were included. As an infection control group 12 mice were infected with MRSA 32 strain without giving any treatment. Normally untreated infected mice die within 24 hrs. due to the systemic spread of infection through out the animal body. […] For compounds affording protection of MRSA infected mice, ED50 dosages were calculated on the basis of percentage survival on Day 7 after infection.
The in-vivo ED50 values using the test compounds were determined essentially by the method as described in PCT WO 95/25106, U.S. Pat. No. 5,668,286 and EP 0 750 618 B1.

`CC(=O)NC[C@H]1CN(c2ccc(N3CCC(CC#N)CC3)c(F)c2)C(=O)O1` [Compound 4, (S)-N-{3-[4-(4-cyanomethyl-piperidin-1-yl)-3-fluoro-phenyl]-2-oxo-oxazolidin-5-ylmethyl}-acetamide] had an ED50 of 2.5 to 5 mg/kg.
